# Data as given in patent publication US5310752A, “Site specific alkylating agents” (priority 1986, dated 1994).
# Structures can show the parent of a compound that is named as a salt. Where two headings read alike, the source gives them in different places.
# Experiments:
# L1210/LPAM = experiment: in vitro cytotoxicity, L-PAM resistance leukemia cells (L1210/LPAM), 4 hours treatment; type: cell-based, murine; conditions: for IC50: Mus musculus, L1210/LPAM, read-out: ID50 L1210/LPAM
# Method: (§1) The in vitro antitumor activity was evaluated by cytotoxicity studies carried out on murine L1210 leukemia cells, L-PAM resistance leukemia cells and P388 leukemia cells, as well as on HeLa cells. Cells were derived from in vivo tumors and established in cell culture. Cells were used until the tenth passage. Cytotoxicity was determined by counting surviving cells after 4 hours treatment and 48 hours growth in drug-free medium. For HeLa cells the colony inhibition test according to Cancer Chemother. Pharmacol. 1:249-254, 1978, was used. The percentage of cell growth in the treated cultures was compared with that of controls. ID50 values (doses inhibiting 50% of the cellular growth in respect to controls) were calculated on dose-response curves.
# (§2) ^1) Cytotoxicity evaluated after 4 hours treatment;
# P388 leukemia cells = experiment: in vitro cytotoxicity, P388 leukemia cells, 48 hours treatment; type: cell-based, murine; conditions: for IC50: Mus musculus, read-out: ID50 P388
# Method: as §1
# ^2) Cytotoxicity evaluated after 48 hours treatment;
# HeLa cells = experiment: colony inhibition test, HeLa cells, 24 hours treatment; type: cell-based; conditions: for IC50: Homo sapiens, read-out: ID50 HeLa
# Method: as §1
# ^3) Colony inhibition test carried out after 24 hours treatment.
# L1210 leukemia cells = experiment: in vitro cytotoxicity, L1210 leukemia cells, 4 hours treatment; type: cell-based; conditions: murine L1210 leukemia cells, cytotoxicity evaluated after 4 hours treatment
# Method: as §1, §2
# DNA-AT sequences = conditions: reported in literature; cited from earlier work
# [1] = L-PAM resistance leukemia cells, cytotoxicity evaluated after 4 hours treatment
# [2] = P388 leukemia cells, cytotoxicity evaluated after 48 hours treatment
# [3] = HeLa cells, colony inhibition test carried out after 24 hours treatment
structure (smiles),measurement,setting,value
"Cn1cc(NC(=O)c2cc(NC(=O)c3cc(NC(=O)c4ccc(N(CCCl)CCCl)cc4)cn3C)cn2C)cc1C(=O)NCCC(=N)N [FCE 24517, β-[1-methyl-4-[1-methyl-4-[1-methyl-4-[4-N,N-bis(2-chloro-ethyl)aminobenzene-1-carboxamido]pyrrole-2-carboxamido]pyrrole-2-carboxamido]pyrrole-2-carboxamido]propionamidine hydrochloride]",IC50,L1210/LPAM; 4 h,0.43 µg/mL
same,IC50,"P388 leukemia cells; P388, 48 h",0.21 µg/mL
same,IC50,"HeLa cells; HeLa, 24 h",0.014 µg/mL
"Cn1cc(NC(=O)c2cc(NC(=O)c3cc(NC(=O)c4cc(N(CCCl)CCCl)cs4)cn3C)cn2C)cc1C(=O)NCCC(=N)N [FCE 24690, β-[1-methyl-4-[1-methyl-4-[1-methyl-4-[4-N,N-bis(2-chloro-ethyl)aminothiophen-2-carboxamido]pyrrole-2-carboxamido]pyrrole-2-carboxamido]pyrrole-2-carboxamido]propionamidine hydrochloride]",ID50 L1210,L1210 leukemia cells,1.365 µg/mL
same,ID50 L1210/LPAM,L1210/LPAM; [1],0.985 µg/mL
same,ID50 P388,P388 leukemia cells; [2],0.22 µg/mL
same,ID50 HeLa,HeLa cells; [3],0.037 µg/mL
"Cn1cc(NC(=O)c2cc(NC(=O)c3cc(NC=O)cn3C)cn2C)cc1C(=O)NCCC(=N)N [distamycin A, reference compound]",IC50,"L1210 leukemia cells; Mus musculus, read-out: ID50 L1210",198 µg/mL
same,IC50,L1210/LPAM; [1],136 µg/mL
same,IC50,P388 leukemia cells; [2],25 µg/mL
same,IC50,HeLa cells; [3],3.9 µg/mL
same,interaction with DNA-AT sequences,DNA-AT sequences,interact reversibly and selectively with DNA-AT sequences interfering with both replication and trascription
